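Grown in 96-well plates, cells were treated for 48 hours with each compound at five concentrations. Insufficient inhibition: endpoint recorded as highest concentration tested. Abbreviation: GI50, concentration required for 50% inhibition of growth.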 Active and inactive are the calls of the source. Rule as the data show it: active = GI50 up to about 1.1 µM and inactive = higher.
Experiments:
Test in all cases: growth of human tumour cells (NCI), 48 h
[1] = system: SNB-75
[2] = system: Malme-3M
[3] = system: OVCAR-8
[4] = system: UACC-257
[5] = system: HCT-116
[6] = system: NCI/ADR-RES
[7] = system: BT-549
[8] = system: SNB-19
[9] = system: OVCAR-5
[10] = system: K562
[11] = system: TK-10
[12] = system: M14
[13] = system: SN12C
[14] = system: NCI-H460
[15] = system: CCRF-CEM
[16] = system: NCI-H23
[17] = system: MDA-MB-435
[18] = system: HT-29
[19] = system: HCC 2998
[20] = system: MCF7
[21] = system: UO-31
[22] = system: A498
[23] = system: COLO 205
[24] = system: OVCAR-4
[25] = system: CAKI-1
[26] = system: MDA-MB-231
[27] = system: SK-MEL-28
[28] = system: SW-620
[29] = system: NCI-H226
[30] = system: 786-0
[31] = system: SK-OV-3
[32] = system: IGROV-1
[33] = system: MOLT-4
[34] = system: DU-145
[35] = system: A549
[36] = system: NCI-H522
[37] = system: OVCAR-3
[38] = system: HL-60
[39] = system: SK-MEL-2
[40] = system: SF-268
[41] = system: SF-295
[42] = system: SK-MEL-5
[43] = system: U-251
[44] = system: Hs-578T
[45] = system: ACHN
[46] = system: HCT-15
[47] = system: PC-3
[48] = system: MDA-N
[49] = system: KM12
[50] = system: LOX IMVI
[51] = system: UACC-62
[52] = system: T47D
[53] = system: RPMI-8226
[54] = system: SF-539
[55] = system: EKVX
[56] = system: HOP-62
[57] = system: HOP-92
[58] = system: RXF 393
[59] = system: SR

Measured: GI50

NC(=O)N/N=C(\Cc1nc2ccc(Cl)cc2nc1O)C(=O)Nc1ccc(Cl)cc1Cl
inactive: [1] > 100 µM | [2] > 100 µM | [3] > 100 µM | [4] > 100 µM | [5] > 100 µM | [6] > 100 µM | [7] > 100 µM | [8] > 100 µM | [9] > 100 µM | [10] > 100 µM | [11] > 100 µM | [12] > 100 µM | [13] > 100 µM | [14] > 100 µM | [15] > 100 µM | [16] > 100 µM | [17] > 100 µM | [18] > 100 µM | [19] > 100 µM | [20] > 100 µM | [21] > 100 µM | [22] > 100 µM | [23] > 100 µM | [24] > 100 µM | [25] > 100 µM | [26] > 100 µM | [27] > 100 µM | [28] > 100 µM | [29] 87.1 µM | [30] > 100 µM | [31] > 100 µM | [32] 81.5 µM | [33] > 100 µM | [34] > 100 µM | [35] > 100 µM | [36] > 100 µM | [37] > 100 µM | [38] > 100 µM | [39] > 100 µM | [40] > 100 µM | [41] > 100 µM | [42] > 100 µM | [43] > 100 µM | [44] 57.4 µM | [45] > 100 µM | [47] > 100 µM | [48] > 100 µM | [49] > 100 µM | [50] > 100 µM | [51] > 100 µM | [52] > 100 µM | [53] > 100 µM | [54] > 100 µM | [55] 10.6 µM
> 100 µM: [46]

CNC(=O)CCCNC(=O)CCCC(=O)OC
> 100 µM: [46]
inactive: [1] > 100 µM | [2] > 100 µM | [3] > 100 µM | [4] > 100 µM | [5] > 100 µM | [6] > 100 µM | [7] > 100 µM | [56] > 100 µM | [8] > 100 µM | [9] > 100 µM | [10] > 100 µM | [11] > 100 µM | [12] > 100 µM | [13] > 100 µM | [14] > 100 µM | [15] > 100 µM | [16] > 100 µM | [17] > 100 µM | [18] > 100 µM | [19] > 100 µM | [20] > 100 µM | [21] > 100 µM | [22] > 100 µM | [23] > 100 µM | [25] > 100 µM | [26] > 100 µM | [27] > 100 µM | [28] > 100 µM | [29] > 100 µM | [30] > 100 µM | [31] > 100 µM | [32] > 100 µM | [57] > 100 µM | [33] > 100 µM | [34] > 100 µM | [35] > 100 µM | [36] > 100 µM | [37] > 100 µM | [38] > 100 µM | [39] > 100 µM | [40] > 100 µM | [41] > 100 µM | [42] > 100 µM | [43] > 100 µM | [44] > 100 µM | [45] > 100 µM | [47] > 100 µM | [48] > 100 µM | [49] > 100 µM | [50] > 100 µM | [51] > 100 µM | [52] > 100 µM | [53] > 100 µM | [54] > 100 µM | [55] > 100 µM

CN(C)CCNc1c([N+](=O)[O-])sc2ccc(Cl)cc12
7.76 µM: [46]
inactive: [1] 14.5 µM | [2] 26.9 µM | [3] 17.3 µM | [6] 11.1 µM | [7] 32.3 µM | [56] 12.2 µM | [8] 26.2 µM | [9] > 100 µM | [10] 7.52 µM | [11] 91 µM | [12] > 100 µM | [13] 7.66 µM | [14] 5.38 µM | [15] 4.36 µM | [16] 23.2 µM | [58] 19.1 µM | [17] 88.5 µM | [18] 5.89 µM | [19] 15.7 µM | [20] 7.36 µM | [21] 20 µM | [22] 23.3 µM | [23] 8.75 µM | [24] 12.6 µM | [26] 17.3 µM | [27] > 100 µM | [28] 3.77 µM | [29] 15.8 µM | [30] 12.2 µM | [31] 25.5 µM | [32] 26.1 µM | [33] 2.37 µM | [34] 80.4 µM | [35] 11.9 µM | [36] 10.8 µM | [37] > 100 µM | [38] > 100 µM | [39] 33.5 µM | [40] 18.3 µM | [41] 17.6 µM | [42] 26.2 µM | [43] 18.3 µM | [44] 21.3 µM | [45] 6.01 µM | [59] > 100 µM | [47] 13.4 µM | [49] > 100 µM | [50] 3.49 µM | [51] 14 µM | [52] 23.6 µM | [53] > 100 µM | [54] 14 µM | [55] 44.7 µM

COC1(OC)C2C=CC1C([C@](C)(N)CO)C2 (some centres not stated)
inactive: [1] > 100 µM | [2] > 100 µM | [3] > 100 µM | [4] > 100 µM | [5] > 100 µM | [7] > 100 µM | [56] > 100 µM | [8] > 100 µM | [9] > 100 µM | [10] > 100 µM | [11] > 100 µM | [12] > 100 µM | [13] > 100 µM | [14] > 100 µM | [15] > 100 µM | [16] > 100 µM | [58] > 100 µM | [17] > 100 µM | [18] > 100 µM | [19] > 100 µM | [20] > 100 µM | [21] > 100 µM | [22] > 100 µM | [23] > 100 µM | [24] > 100 µM | [25] > 100 µM | [26] > 100 µM | [27] > 100 µM | [28] > 100 µM | [29] > 100 µM | [30] > 100 µM | [31] > 100 µM | [32] > 100 µM | [57] > 100 µM | [33] > 100 µM | [34] > 100 µM | [35] > 100 µM | [36] > 100 µM | [37] > 100 µM | [38] > 100 µM | [40] > 100 µM | [41] > 100 µM | [42] > 100 µM | [43] > 100 µM | [44] > 100 µM | [45] > 100 µM | [59] > 100 µM | [47] > 100 µM | [48] > 100 µM | [49] > 100 µM | [51] > 100 µM | [52] > 100 µM | [54] > 100 µM | [55] > 100 µM

O=C(CC(=O)Nc1cccc(C(=O)O)c1)Nc1cccc(C(=O)O)c1
inactive: [3] > 100 µM | [4] > 100 µM | [5] > 100 µM | [6] > 100 µM | [7] > 100 µM | [56] > 100 µM | [8] > 100 µM | [10] > 100 µM | [11] > 100 µM | [12] > 100 µM | [13] > 100 µM | [14] > 100 µM | [15] > 100 µM | [16] > 100 µM | [17] > 100 µM | [18] > 100 µM | [19] > 100 µM | [20] > 100 µM | [21] > 100 µM | [22] > 100 µM | [23] > 100 µM | [24] > 100 µM | [25] > 100 µM | [26] > 100 µM | [27] > 100 µM | [28] > 100 µM | [29] > 100 µM | [30] > 100 µM | [32] > 100 µM | [57] > 100 µM | [33] > 100 µM | [34] > 100 µM | [35] > 100 µM | [36] > 100 µM | [37] > 100 µM | [38] > 100 µM | [39] > 100 µM | [40] > 100 µM | [41] > 100 µM | [42] > 100 µM | [43] > 100 µM | [44] > 100 µM | [45] > 100 µM | [47] > 100 µM | [48] > 100 µM | [49] > 100 µM | [50] > 100 µM | [51] 96.6 µM | [52] > 100 µM | [53] > 100 µM | [54] > 100 µM | [55] > 100 µM
> 100 µM: [46]

From ChEMBL document CHEMBL1201862, “PubChem BioAssay data set” (2004)
